Data from ChEMBL document CHEMBL5143526, “Acridine-O6-benzylguanine hybrids: Synthesis, DNA binding, MGMT inhibition and antiproliferative activity” (Eur J Med Chem, 2022).
Active and inactive are the calls of the source. The calls are words filed in the database; no cut-off is given here.

Experiments:
T98G [1] = experiment: Antiproliferative activity against human T98G cells assessed as cell growth inhibition incubated for 96 hrs by CellTiter-Glo luminescent cell viability assay; assay type: functional
T98G [2] = experiment: Antagonistic antiproliferative activity against human T98G cells assessed as reduction in cell viability at 25 uM pretreated for 2 hrs followed by TMZ addition at 375 uM and measured after 94 hrs by CellTiter-Glo luminescent cell viability assay; assay type: functional, cell-based; settings: time 96.0 hrs
T98G [3] = experiment: Additive antiproliferative activity against human T98G cells assessed as reduction in cell viability at 25 uM pretreated for 2 hrs followed by TMZ addition at 188 uM and measured after 94 hrs by CellTiter-Glo luminescent cell viability assay; assay type: functional, cell-based; settings: time 96.0 hrs
T98G [4] = experiment: Antiproliferative activity against human T98G cells assessed as cell viability at 25 uM incubated for 96 hrs by CellTiter-Glo luminescent cell viability assay relative to control; assay type: functional; settings: read-out: Activity
T98G [5] = experiment: Synergistic antiproliferative activity against human T98G cells assessed as reduction in cell viability at 25 uM pretreated for 2 hrs followed by TMZ addition at 94 uM and measured after 94 hrs by CellTiter-Glo luminescent cell viability assay; assay type: functional, cell-based; settings: time 96.0 hrs
T98G [6] = experiment: Additive antiproliferative activity against human T98G cells assessed as reduction in cell viability at GI50 pretreated for 2 hrs followed by TMZ addition at 188 uM and measured after 94 hrs by CellTiter-Glo luminescent cell viability assay; assay type: functional, cell-based
T98G [7] = experiment: Induction of apoptosis in human T98G cells assessed as increase in early apoptotic cells at 1.1 uM pretreated for 2 hrs followed by TMZ addition and measured after 96 hrs by Annexin V-FITC/PI staining based flow cytometry analysis relative to control; assay type: functional; settings: time 98 hrs
[8] = Fluorescence property of compound in MeCN assessed as quantum yield; assay type: physicochemical
Calf thymus DNA [9] = experiment: Binding affinity to calf thymus DNA assessed as intercalation by measuring dissociation constant at 20 uM measured after 5 mins by UV-Vis spectrophotometric titration analysis; assay type: nucleic-acid assay, Bos taurus
Calf thymus DNA [10] = experiment: Binding affinity to calf thymus DNA assessed as ligand-induced thermal stabilization of DNA duplex by measuring change in melting temperature at 6.25 uM by thermal denaturation analysis; assay type: nucleic-acid assay; settings: Bos taurus
[11] = Fluorescence property of compound in aqueous solution assessed as quantum yield; assay type: physicochemical; settings: buffer
T98G [12] = experiment: Synergistic antiproliferative activity against human T98G cells assessed as reduction in cell viability at GI50 pretreated for 2 hrs followed by TMZ addition at 375 uM and measured after 94 hrs by CellTiter-Glo luminescent cell viability assay; assay type: functional, cell-based; settings: time 96.0 hrs
[13] = Fluorescence property of compound in THF assessed as quantum yield; assay type: physicochemical
[14] = Drug localization in cytosolic region of human T98G cells at 1.1 uM measured after 96 hrs by confocal microscope based live cell imaging analysis; assay type: ADME, subcellular; settings: cytosol
T98G [15] = experiment: Synergistic antiproliferative activity against human T98G cells assessed as reduction in cell viability at GI50 pretreated for 2 hrs followed by TMZ addition at 94 uM and measured after 94 hrs by CellTiter-Glo luminescent cell viability assay; assay type: functional, cell-based; settings: time 96.0 hrs
[16] = Drug localization in perinuclear region of nuclear membrane of human T98G cells assessed as appearance of z-stacked series at 1.1 uM measured after 96 hrs by confocal microscope based live cell imaging analysis; assay type: ADME, cell membranes
[17] = Thermal stability of compound in aqueous solution at 10 uM at 20 to 75 degreeC by UV-vis absorption spectroscopy; assay type: physicochemical; settings: buffer
T98G [18] = experiment: Induction of apoptosis in human T98G cells assessed as increase in early apoptotic cells at 1.1 uM measured after 96 hrs by Annexin V-FITC/PI staining based flow cytometry analysis relative to control; assay type: functional
[19] = Fluorescence property of compound in MeOH assessed as quantum yield; assay type: physicochemical
T98G [20] = experiment: Antagonistic antiproliferative activity against human T98G cells assessed as reduction in cell viability at GI50 pretreated for 2 hrs followed by TMZ addition at 375 uM and measured after 94 hrs by CellTiter-Glo luminescent cell viability assay; assay type: functional, cell-based; settings: time 96.0 hrs
T98G [21] = experiment: Additive antiproliferative activity against human T98G cells assessed as reduction in cell viability at 25 uM pretreated for 2 hrs followed by TMZ addition at 94 uM and measured after 94 hrs by CellTiter-Glo luminescent cell viability assay; assay type: functional, cell-based; settings: time 96.0 hrs
T98G [22] = experiment: Antagonistic antiproliferative activity against human T98G cells assessed as reduction in cell viability at GI50 pretreated for 2 hrs followed by TMZ addition at 188 uM and measured after 94 hrs by CellTiter-Glo luminescent cell viability assay; assay type: functional, cell-based; settings: time 96.0 hrs
Calf thymus DNA [23] = experiment: Displacement of ethidium bromide from calf thymus DNA incubated for 30 mins by fluorescence microplate reader assay; assay type: nucleic-acid assay, Bos taurus
[24] = system: Panel NCI-60 (60 carcinoma cell lines); experiment: Antiproliferative activity against human Panel NCI-60 (60 carcinoma cell lines) assessed as cell growth inhibition incubated for 48 hrs; assay type: functional
Calf thymus DNA [25] = experiment: Binding affinity to calf thymus DNA assessed as ligand induced positive CD band at 50 uM by Circular dichroism spectroscopy analysis; assay type: nucleic-acid assay; settings: Bos taurus
T98G [26] = experiment: Antagonistic antiproliferative activity against human T98G cells assessed as reduction in cell viability at GI50 pretreated for 2 hrs followed by TMZ addition at 94 uM and measured after 94 hrs by CellTiter-Glo luminescent cell viability assay; assay type: functional, cell-based; settings: time 96.0 hrs
T98G [27] = experiment: Additive antiproliferative activity against human T98G cells assessed as reduction in cell viability at 25 uM pretreated for 2 hrs followed by TMZ addition at 375 uM and measured after 94 hrs by CellTiter-Glo luminescent cell viability assay; assay type: functional, cell-based; settings: time 96.0 hrs
T98G [28] = experiment: Induction of apoptosis in human T98G cells assessed as increase in early apoptotic cells at 92 uM pretreated for 2 hrs followed by TMZ addition and measured after 96 hrs by Annexin V-FITC/PI staining based flow cytometry analysis (reference value: 2 %); assay type: functional; settings: time 98 hrs
T98G [29] = experiment: Induction of DNA damage in human T98G cells assessed as increase in gammaH2AX foci number and size at 92 uM pretreated for 2 hrs followed by TMZ addition and measured after 94 hrs by DAPI staining based immunofluorescence assay; assay type: functional, cell-based; settings: time 96.0 hrs
HT-29 = experiment: Growth inhibition of human HT-29 cells measured after 24 hrs; assay type: functional
T98G [30] = experiment: Additive antiproliferative activity against human T98G cells assessed as reduction in cell viability at GI50 pretreated for 2 hrs followed by TMZ addition at 375 uM and measured after 94 hrs by CellTiter-Glo luminescent cell viability assay; assay type: functional, cell-based; settings: time 96.0 hrs
T98G [31] = experiment: Antiproliferative activity against human T98G cells assessed as cell viability at 188 uM incubated for 96 hrs by CellTiter-Glo luminescent cell viability assay relative to control; assay type: functional; settings: read-out: Activity
T98G [32] = experiment: Antiproliferative activity against human T98G cells assessed as cell viability at 94 uM incubated for 96 hrs by CellTiter-Glo luminescent cell viability assay relative to control; assay type: functional; settings: read-out: Activity
T98G [33] = experiment: Antiproliferative activity against human T98G cells assessed as cell viability at 375 uM incubated for 96 hrs by CellTiter-Glo luminescent cell viability assay relative to control; assay type: functional; settings: read-out: Activity

## Nc1nc(OCc2ccccc2)c2ncn(CCCCN3C(=O)c4ccccc4C3=O)c2n1
T98G [1]
  GI50: > 25 µM
T98G [2]
  Activity: Active
T98G [3]
  Activity: Active
T98G [4]
  viability at 25 µM: ≥ 70%
T98G [5]
  Activity: Active

## COc1ccc2nc3cc(Cl)ccc3c(NCCCCn3cnc4c(OCc5ccccc5)nc(N)nc43)c2c1
T98G [1]
  GI50: 1.1 µM
T98G [6]
  Activity: Active
T98G [7]
  Activity: 11%
[8]
  Activity: 0.07
Calf thymus DNA [9]
  Kd: 19.1 µM
Calf thymus DNA [10]
  ΔTm: 0.6 °C
[11]
  Activity: 0.01
T98G [12]
  Activity: Active
[13]
  Activity: 0.09
[14]
  Drug uptake: Active
T98G [15]
  Activity: Active
[16]
  Drug uptake: Active
[17]
  Stability: Stable
T98G [18]
  Activity: 10%
[19]
  Activity: 0.06

## COc1ccc2nc3cc(Cl)ccc3c(NCCOCCOCC(=O)NCc3cccc(COc4nc(N)nc5[nH]cnc45)c3)c2c1
T98G [1]
  GI50: 25 µM
[8]
  Activity: 0.05
T98G [20]
  Activity: Active
Calf thymus DNA [9]
  Kd: 23.4 µM
T98G [21]
  Activity: Active
Calf thymus DNA [10]
  ΔTm: -0.7 °C
T98G [22]
  Activity: Active
[11]
  Activity: 0.01
[13]
  Activity: 0.06
[17]
  Stability: Stable
[19]
  Activity: 0.06

## COc1ccc2nc3cc(Cl)ccc3c(N)c2c1
T98G [1]
  GI50: 0.6 µM
T98G [6]
  Activity: Active
Calf thymus DNA [23]
  EC50: 8 µM
[8]
  Activity: 0.22
Calf thymus DNA [9]
  Kd: 16.1 µM
Calf thymus DNA [10]
  ΔTm: 8.5 °C
[11]
  Activity: 0.36
[13]
  Activity: 0.22
[24]
  GI50: 1 µM
T98G [15]
  Activity: Active
Calf thymus DNA [25]
  Activity: Active
[19]
  Activity: 0.42

## COc1ccc2nc3cc(Cl)ccc3c(NCCCCCCCCn3cnc4c(OCc5ccccc5)nc(N)nc43)c2c1
T98G [26]
  Activity: Active
T98G [1]
  GI50: 14.5 µM
[8]
  Activity: 0.09
T98G [20]
  Activity: Active
Calf thymus DNA [10]
  ΔTm: 0.7 °C
T98G [22]
  Activity: Active
[11]
  Activity: 0.05
[13]
  Activity: 0.08
[17]
  Stability: Stable
[19]
  Activity: 0.05

## NCc1cccc(COc2nc(N)nc3nc[nH]c23)c1
T98G [1]
  GI50: > 25 µM
T98G [3]
  Activity: Active
T98G [5]
  Activity: Active
T98G [27]
  Activity: Active

## COc1ccc2nc3cc(Cl)ccc3c(NCCCCCCCC(=O)NCc3cccc(COc4nc(N)nc5[nH]cnc45)c3)c2c1
T98G [1]
  GI50: 19.4 µM
T98G [6]
  Activity: Active
[8]
  Activity: 0.04
T98G [20]
  Activity: Active
Calf thymus DNA [9]
  Kd: 14.3 µM
T98G [21]
  Activity: Active
Calf thymus DNA [10]
  ΔTm: 0.2 °C
[11]
  Activity: 0.01
[13]
  Activity: 0.06
[17]
  Stability: Stable
[19]
  Activity: 0.06

## Nc1nc(OCc2ccccc2)c2nc[nH]c2n1 [6-O-BENZYLGUANINE]
T98G [1]
  GI50: 91.8 µM
T98G [3]
  Activity: Active
T98G [28]
  Activity: 8%
T98G [5]
  Activity: Active
T98G [27]
  Activity: Active
T98G [29]
  Activity: Active
HT-29
  GI50: > 100 µM

## COc1ccc2nc3cc(Cl)ccc3c(NCCOCCOCCn3cnc4c(OCc5ccccc5)nc(N)nc43)c2c1
T98G [1]
  GI50: 2.1 µM
T98G [6]
  Activity: Active
[8]
  Activity: 0.09
Calf thymus DNA [9]
  Kd: 13.4 µM
Calf thymus DNA [10]
  ΔTm: -1.4 °C
[11]
  Activity: < 0.01
T98G [12]
  Activity: Active
[13]
  Activity: 0.09
T98G [15]
  Activity: Active
[17]
  Stability: Stable
[19]
  Activity: 0.06

## COc1ccc2nc3cc(Cl)ccc3c(NCCCCn3cnc4c(=O)[nH]c(N)nc43)c2c1
T98G [1]
  GI50: > 25 µM
T98G [6]
  Activity: Active
T98G [30]
  Activity: Active

## Cn1nnc2c(C(N)=O)ncn2c1=O [TEMOZOLOMIDE]
T98G [31]
  viability at 188 µM: 63%
T98G [1]
  GI50: 375 µM
T98G [32]
  viability at 94 µM: 100%
T98G [33]
  viability at 375 µM: 50%

## NCCCCn1cnc2c(OCc3ccccc3)nc(N)nc21
T98G [1]
  GI50: > 25 µM
T98G [3]
  Activity: Active
T98G [4]
  viability at 25 µM: ≥ 70%
T98G [5]
  Activity: Active
T98G [27]
  Activity: Active

## COc1ccc2nc3cc(Cl)ccc3c(NCCC(=O)NCc3cccc(COc4nc(N)nc5[nH]cnc45)c3)c2c1
T98G [1]
  GI50: 15.6 µM
T98G [30]
  Activity: Active
[8]
  Activity: 0.06
Calf thymus DNA [9]
  Kd: 16.2 µM
T98G [21]
  Activity: Active
Calf thymus DNA [10]
  ΔTm: 1.5 °C
T98G [22]
  Activity: Active
[11]
  Activity: 0.08
[13]
  Activity: 0.12
[17]
  Stability: Stable
[19]
  Activity: 0.07

## COc1ccc2nc3cc(Cl)ccc3c(NCCCCn3cnc4c(Oc5ccccc5)nc(N)nc43)c2c1
T98G [1]
  GI50: 0.8 µM
T98G [6]
  Activity: Active
T98G [30]
  Activity: Active
T98G [21]
  Activity: Active
